According to patent publication US9078442B2, “Herbicidally and fungicidally active 3-phenylisoxazoline-5-carboxamides and 3-phenylisoxazoline-5-thioamides” (BAYER INTELLECTUAL PROPERTY GMBH, priority 2011, dated 2015):

Assays:
Peronospora parasitica = experiment: In vivo test Peronospora parasitica (downy mildew on cabbage), protective; details: evaluation 5 days after infection
Description: In vivo test Peronospora parasitica (downy mildew on cabbage) To prepare an appropriate active compound formulation, the active compound is mixed with acetone/Tween/DMSO and the mixture is diluted with water to the desired concentration. Cabbage plants are cultivated in 50/50 peat/pozzolan soil in small pots at 18-20° C. and sprayed at the cotyledon stage at the respective stated application rates to test for protective activity. Control plants were treated in the same manner, but using an aqueous solution without any active compounds. 24 hours after the spraying, the plants were sprayed with a spore suspension of Peronospora parasitica (50 000 spores/ml). The plants were placed in a cabin at 20° C. in a humid atmosphere for 5 days.

Phytophthora infestans = assay type: in vivo; details: Phytophthora infestans on tomato, application rate 1200 g/ha, evaluation 5 days after infection
Leptosphaeria nodorum = experiment: In vivo test Leptosphaeria nodorum (wheat); details: Leptosphaeria nodorum on wheat, application rate 1200 g/ha, evaluation 15-17 days after inoculation
Description: Wheat plants (cultivar: (Scipion) are cultivated in 50/50 peat pozzolan substrate at 12° C. and sprayed at the 1-leaf stage with the active compound preparation as given in Example A. After 24 hours, the plants are sprayed with a spore suspension of Leptosphaeria nodorum (250 000 spores/ml).

[1] = tested on: Mycosphaerella graminicola; experiment: In vivo test Mycosphaerella graminicola (wheat); details: Mycosphaerella graminicola on wheat, evaluation 21-28 days after inoculation
Description: Wheat plants (cultivar: (Scipion) are cultivated in 50/50 peat pozzolan substrate at 12° C. and sprayed at the 1-leaf stage with the active compound preparation as given in Example A. After 24 hours, the plants are sprayed with a spore suspension of Mycosphaerella graminicola (500 000 spores/ml).

Botrytis cinerea = experiment: In vivo test Botrytis cinerea (gray mold on cucumbers); details: Botrytis cinerea on cucumber, evaluation 5-7 days after infection
Description: Cucumber plants (Vert petit de Paris) are cultivated in 50/50 peat pozzolan substrate at 20-25° C. and sprayed at the Z16 stage with the active compound preparation given in Example 1. After 24 hours, the upper sides of the leaves of the plants are sprayed with a spore suspension of Botrytis cinerea (150 000 spores/ml). The spores of a 15-day old culture are collected and suspended in a nutrient solution consisting of • 20 g/l of gelatin; • 50 g/l of D-fructose; • 2 g/l of NH4NO3; • 1 g/L of KH2PO4. The inoculated cucumber plants are placed at 15-11° C. (day/night) and at 80% relative atmospheric humidity for 5-7 days.

Alternaria brassicae = experiment: In vivo test Alternaria brassicae (salad radish); set-up: concentration or dose not given beside the values; details: Alternaria brassicae on salad radish, application rate not given, evaluation 6-7 days after inoculation
Description: Salad radish (cultivar Pernot) are cultivated in 50/50 peat pozzolan substrate at 18-20° C. and sprayed at the cotyledon stage with the active compound preparation given above. After 24 hours, the plants are sprayed with a spore suspension of Alternaria brassicae (40 000 spores/cm3). The inoculated plants are placed at 18° C. and in a humid atmosphere for 6-7 days. […] At an application rate of g/ha, the following efficacies are found for the following compounds.

Sphaerotheca fuliginea = experiment: In vivo test Sphaerotheca fuliginea (cucumber); details: Sphaerotheca fuliginea on cucumber, evaluation 12 days after inoculation
Description: Cucumber plants (cultivar: Vert petit de Paris) are cultivated in 50/50 peat pozzolan substrate at 20/23° C. and sprayed at the cotyledon stage with the active compound preparation given in Example A. After 24 hours, the plants are sprayed with a spore suspension of Sphaerotheca fuliginea (100 000 spores/ml).

Structure (SMILES) | Activity [%] (efficacy) (Peronospora parasitica; application rate 1200 g/ha) | Activity [%] (efficacy) (Phytophthora infestans) | Activity [%] (efficacy) (Peronospora parasitica; application rate 500 g/ha) | Activity [%] (efficacy) (Alternaria brassicae) | Activity [%] (efficacy) ([1]; application rate 500 g/ha) | other results
COCCCCNC(=O)C1(C)CC(c2cc(Cl)cc(Cl)c2)=NO1 (stereo not drawn) [Example 6.006] | 100 | 70 |  |  |  | Activity [%] (efficacy) (Leptosphaeria nodorum): 100%
CCn1cc(CNC(=O)C2(CC)CC(c3cc(Cl)cc(Cl)c3)=NO2)cn1 (stereo not drawn) [Example 2.136] | 100 | 90 |  |  |  | Activity [%] (efficacy) ([1]; application rate 1200 g/ha): 88%
CC(C)NC(=O)C1(C)CC(c2cc(Cl)cc(Cl)c2)=NO1 (stereo not drawn) [Example 6.165] |  |  | 95 | 95 | 100 | Activity [%] (efficacy) (Botrytis cinerea; application rate 500 g/ha): 93%
CCCn1cc(CNC(=O)C2(C)CC(c3cc(Cl)cc(Cl)c3)=NO2)c(C)n1 (stereo not drawn) [Example 1.374] | 100 | 100 |  |  |  | Activity [%] (efficacy) (Botrytis cinerea; application rate 1200 g/ha): 98%; Activity [%] (efficacy) (Sphaerotheca fuliginea; application rate 1200 g/ha): 99%
CC1(C(=O)NCC(F)(F)F)CC(c2cc(Cl)cc(Cl)c2)=NO1 (stereo not drawn) [Example 6.377] |  |  |  | 77 | 100 | 
CCn1cc(CNC(=O)C2(C3CC3)CC(c3cc(Cl)cc(Cl)c3)=NO2)c(C)n1 (stereo not drawn) [Example 5.018] |  | 75 | 100 |  |  | Activity [%] (efficacy) ([1]; application rate 1200 g/ha): 88%
CC1(C(=O)NCC2CC2)CC(c2cc(Cl)cc(Cl)c2)=NO1 (stereo not drawn) [Example 6.431] |  |  | 71 | 77 | 100 | 
CCC(C)NC(=O)C1(C)CC(c2cc(Cl)cc(Cl)c2)=NO1 (mixture of isomers) [Example 6.217] | 100 |  |  | 81 |  | Activity [%] (efficacy) (Botrytis cinerea; application rate 1200 g/ha): 100%
Cc1cc(CNC(=O)C2(C)CC(c3cc(Cl)cc(Cl)c3)=NO2)n(C)n1 (stereo not drawn) [Example 1.122] |  |  | 100 |  | 75 | Activity [%] (efficacy) (Sphaerotheca fuliginea; application rate 500 g/ha): 72%
CCC1(C(=O)NCC(F)(F)F)CC(c2cc(Cl)cc(Cl)c2)=NO1 (stereo not drawn) [Example 7.359] |  |  |  | 86 | 100 | 
CC(C)(C)NC(=O)C1(C)CC(c2cc(Cl)cc(Cl)c2)=NO1 (stereo not drawn) [Example 6.117, N-tert-butyl-3-(3,5-dichlorophenyl)-5-methyl-4,5-dihydro-1,2-oxazole-5-carboxamide] |  |  | 92 | 73 | 91 | 
CC(C)NC(=O)C1(C)CC(c2cc(Cl)cc(C(F)(F)F)c2)=NO1 (stereo not drawn) [Example 6.188] |  |  |  | 73 | 100 | Activity [%] (efficacy) (Botrytis cinerea; application rate 500 g/ha): 86%
CC1(C(=O)NC2CC2)CC(c2cc(Cl)cc(Cl)c2)=NO1 (stereo not drawn) [Example 6.054] |  |  |  | 94 | 100 | 
CC(C)NC(=O)C1(C)CC(c2cc(Cl)cc(OCC(F)(F)F)c2)=NO1 (stereo not drawn) [Example 6.193] |  |  |  |  | 95 | Activity [%] (efficacy) (Sphaerotheca fuliginea; application rate 500 g/ha): 85%
CCn1cc(CNC(=O)C2(C)CC(c3cc(F)cc(Cl)c3)=NO2)c(C)n1 (stereo not drawn) [Example 1.197] | 100 | 100 |  |  |  | Activity [%] (efficacy) (Sphaerotheca fuliginea; application rate 1200 g/ha): 100%
CCn1cc(CNC(=O)C2(C)CC(c3cc(Cl)cc(Cl)c3)=NO2)c(C)n1 (stereo not drawn) [Example 1.222] |  | 100 | 100 |  |  | Activity [%] (efficacy) ([1]; application rate 1200 g/ha): 96%
CCC1(C(=O)NC(C)C)CC(c2cc(Cl)cc(Cl)c2)=NO1 (stereo not drawn) [Example 7.161] | 97 |  |  |  |  | Activity [%] (efficacy) (Botrytis cinerea; application rate 1200 g/ha): 100%; Activity [%] (efficacy) ([1]; application rate 1200 g/ha): 85%
Cc1c(NC(=O)C2(C)CC(c3cc(F)cc(F)c3)=NO2)cnn1C (stereo not drawn) [Example 1.007] |  |  |  |  | 73 | Activity [%] (efficacy) (Sphaerotheca fuliginea; application rate 500 g/ha): 75%
Cn1cc(CNC(=O)C2(C)CC(c3cc(Cl)cc(Cl)c3)=NO2)cn1 (stereo not drawn) [Example 1.285] |  |  | 100 |  | 75 | Activity [%] (efficacy) (Sphaerotheca fuliginea; application rate 500 g/ha): 89%
CCn1cc(CNC(=O)C2(C)CC(c3cc(C)cc(C)c3)=NO2)c(C)n1 (stereo not drawn) [Example 1.194] | 100 | 100 |  |  |  | Activity [%] (efficacy) (Botrytis cinerea; application rate 1200 g/ha): 95%; Activity [%] (efficacy) ([1]; application rate 1200 g/ha): 88%
CCn1cc(CNC(=O)C2(C)CC(c3cccc(Cl)c3)=NO2)c(C)n1 (stereo not drawn) [Example 1.195] | 100 | 100 |  |  | 79 | 
CC1(C(=O)Nc2ccc(C(=O)O)cc2)CC(c2cc(Cl)cc(Cl)c2)=NO1 (stereo not drawn) [Example 1.064] |  |  | 95 |  | 75 | Activity [%] (efficacy) (Botrytis cinerea; application rate 500 g/ha): 100%
CC(C)NC(=O)C1(C)CC(c2cccc(N)c2)=NO1 (stereo not drawn) [Example 6.183] |  |  |  |  |  | Activity [%] (efficacy) (Sphaerotheca fuliginea; application rate 500 g/ha): 98%
CC1(C(=O)NC2CC2)CC(c2cc(Cl)cc(Br)c2)=NO1 (stereo not drawn) [Example 6.064] |  |  |  | 91 | 100 | 
C#CC(C)NC(=O)C1(C)CC(c2cc(Cl)cc(Cl)c2)=NO1 (single isomer, unassigned) [Example 6.216] |  |  | 75 | 82 |  | 
